Each structure is given as a SMILES string. Several values for one entry are separate records, joined by “and”; a condition that tells them apart may be missing. Equal entries are not always repeated.

The experiment relates to 997726-040-R-J2-PDC tumor spheroids, viability. As to the kind of experiment: Anticancer human tumor 997726-040-R-J2-PDC patient-derived squamous cell lung carcinoma cell line growth inhibition [PI3K]. As to conditions: spheroids with HUVEC and MSC; for viability, T/C: stronger effect = lower value. The text has this:
Combinatorial screen of targeted agents with the PI3K inhibitors inavolisib, alpelisib, duvelisib, and copanlisib in multi-cell type tumor spheroids
A high-throughput screen of multi-cell type tumor spheroids was designed to identify active combinations of targeted small molecules and PI3K pathway inhibitors. Complex spheroids include a stromal component modeled by human endothelial cells (HUVEC) and fibroblasts modeled by human mesenchymal stem cells (MSCs). The concentration ranges selected for each drug and investigational agent were based upon clinically achievable concentrations if the clinical Cmax of the agent was known.
Compounds. The drugs and investigational agents: inavolisib (NSC800729), alpelisib (NSC765974), duvelisib (NSC772469), copanlisib (NSC816437), ipatasertib (NSC767898), afuresertib (NSC778305), talazoparib (NSC767125), sapanisertib (NSC764658), selumetinib (NSC741078), tovorafenib (DAY101, NSC766906), vemurafenib (NSC761431), ravoxertinib (NSC781343), sotorasib (NSC818433), MRTX1133 (NSC 836407), abemaciclib (NSC 768073), palbociclib (NSC758247), venetoclax (NSC 766270), SY5609 (NSC837396), enzalutamide (NSC755605), and darolutamide (NSC825331), were obtained from the National Cancer Institute (NCI) Developmental Therapeutics Program Chemical Repository. The FDA-approved anticancer drug set is available from the NCI Developmental Therapeutics Program. […] The stock solutions were prepared in dimethyl sulfoxide (DMSO, Sigma-Aldrich, St. Louis, MO, cat. D2650) at 800-fold the tested concentration and stored at -70 degrees C prior to their use. All drugs and investigational agents were tested over a range starting from a high concentration at or near the clinical Cmax and decreasing in half-log increments. If the clinical Cmax for an agent had not been determined, the highest concentration tested was 10 microM.
Cell Culture. All cells were maintained in an incubator at 37 degrees C and 5% CO2 with 95% humidity. The PDC lines were cultured according to standard operating procedures established by the NCI PDMR (https://pdmr.cancer.gov/sops/default.htm). All PDCs were thawed and cultured in Matrigel-coated flasks prepared with a working solution of 1X Ham's F-12 nutrient mix, without supplementation (Invitrogen, Waltham, MA, cat. 11765054), 100 U/mL penicillin-streptomycin (Invitrogen, cat. 15140122), and 2.5% Matrigel (Corning Inc., Corning, NY, cat. 354248) for the first three passages. The 354836-022-R-J1-PDC, 475296-252-R-J1-PDC, and 997726-040-R-J2-PDC lines were cultured in 6A media, which includes advanced DMEM/F-12 (Thermo Fisher Scientific, cat. 12634028), 10 mM HEPES (Thermo Fisher Scientific, cat. 15630080), 1X GlutaMAX supplement (Thermo Fisher Scientific, cat. 35050061), 0.1 mg/mL primocin (InvivoGen, San Diego, CA, cat. ant-pm-2), 10% defined fetal bovine serum, heat inactivated (HyClone Laboratories Inc., Logan, UT, cat. SH30070.03HI), 50% L-WRN conditioned media (ATCC, cat. CRL-3276), 1.25 mM N-Acetyl-L-cysteine (Sigma-Aldrich, cat. A9165), 10 mM nicotinamide (Sigma-Aldrich, cat. N0636), 1X B-27 supplement (Thermo Fisher Scientific, cat. 17504044), 1X N-2 supplement (Thermo Fisher Scientific, cat. 17502048), and 10 microM Y-27632 dihydrochloride (Tocris Bioscience, Bristol, United Kingdom, cat. 1254). The 624824-186-R-J2-PDC line was cultured in 6C/Colon 1B media, which includes all 6A media components plus 50 ng/mL human EGF recombinant protein (Thermo Fisher Scientific, cat. PHG0311). […]

Where [1] appears, read: compound alone, run of 06/12/2023.
Setting [2] is: compound alone, run of 06/13/2023.
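Further: spheroids exposed to compounds for seven days before readout.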

Take `CC(=O)c1c(C)c2cnc(Nc3ccc(N4CCNCC4)cn3)nc2n(C2CCCC2)c1=O`: the viability, T/C (commonly the result in the treated group divided by that in the control group, in per cent) (compound 0.000316 µM) is 94.7% [middle of 4 runs]; the viability, T/C (compound 0.001 µM) is 92.8% [middle of 4 runs]; the viability, T/C (compound 0.00316 µM) is 99.1% [middle of 4 runs]; the viability, T/C (compound 0.01 µM) was 91.3% [middle of 4 runs]; the viability, T/C (compound 0.0316 µM) was 82.2% [middle of 4 runs]; the viability, T/C (compound 0.1 µM) was 62.8% [middle of 4 runs]. Further, for the setting “curve of compound”, the 50% inhibitory concentration (IC50) (in general, the concentration that inhibits the measured activity by half) is more than 0.1 µM.
Regarding `CC(C)NCC(C(=O)N1CCN(c2ncnc3c2C(C)CC3O)CC1)c1ccc(Cl)cc1` (configuration not stated), the viability, T/C runs as follows: (compound 0.0316 µM) 88.5% [middle of 4 runs]; (compound 0.1 µM) 77% [middle of 4 runs]; (compound 0.316 µM) 51.8% [middle of 4 runs]; (compound 1 µM) 25.5% [middle of 4 runs]; (compound 3.16 µM) 13.7% [middle of 4 runs]; (compound 10 µM) 9.08% [middle of 4 runs]. For the same compound, under “curve of compound”, the IC50 was 336 nM [middle of 4 runs].
`CC(C)n1nc(-c2ccc3oc(N)nc3c2)c2c(N)ncnc21`: the viability, T/C is 91.5% [middle of 4 runs] (compound 0.000316 µM); 85% [middle of 4 runs] (compound 0.001 µM); 87.5% [middle of 4 runs] (compound 0.00316 µM); 68% [middle of 4 runs] (compound 0.01 µM); 50.7% [middle of 4 runs] (compound 0.0316 µM); 14.7% [middle of 4 runs] (compound 0.1 µM). The IC50 (curve of compound) was 28.8 nM [middle of 4 runs].
Turning to `CC(Nc1ccc2c(c1)OCCn1cc(N3C(=O)OCC3C(F)F)nc1-2)C(N)=O` (configuration not stated), the viability, T/C by setting is: (compound 0.00316 µM) 91.6% [middle of 8 runs]; (compound 0.01 µM) 81.8% [middle of 8 runs]; (compound 0.0316 µM) 61% [middle of 8 runs]; (compound 0.1 µM) 44.3% [middle of 8 runs]; (compound 0.316 µM) 32.9% [middle of 8 runs]; (compound 1 µM) 28.2% [middle of 8 runs]. Also, under setting [1], the concentration for half-maximal inhibition (IC50) is 71.5 nM [middle of 8 runs].
With `CC(Nc1ncnc2nc[nH]c12)c1cc2cccc(Cl)c2c(=O)n1-c1ccccc1` (configuration not stated), the viability, T/C is 106% [middle of 8 runs] (compound 0.0316 µM); 99.4% [middle of 8 runs] (compound 0.1 µM); 94.3% [middle of 8 runs] (compound 0.316 µM); 86.6% [middle of 8 runs] (compound 1 µM); 70.8% [middle of 8 runs] (compound 3.16 µM); 54.7% [middle of 8 runs] (compound 10 µM). Also, the half-inhibitory concentration (IC50) under setting [2] is > 10 µM and 9.01 µM.
Consider `CC1(C)CCC(CN2CCN(c3ccc(C(=O)NS(=O)(=O)c4ccc(NCC5CCOCC5)c([N+](=O)[O-])c4)c(Oc4cnc5[nH]ccc5c4)c3)CC2)=C(c2ccc(Cl)cc2)C1`, for which the viability, T/C is 98.4% [middle of 4 runs] (compound 0.0316 µM); 95.7% [middle of 4 runs] (compound 0.1 µM); 102% [middle of 4 runs] (compound 1 µM); 98.8% [middle of 4 runs] (compound 3.16 µM); 42.4% [middle of 4 runs] (compound 10 µM). Under “curve of compound”, the IC50 was 8.5 µM [middle of 4 runs].
On to `CCCS(=O)(=O)Nc1ccc(F)c(C(=O)c2c[nH]c3ncc(-c4ccc(Cl)cc4)cc23)c1F`, for which the viability, T/C is, setting by setting: (compound 0.0316 µM) 103% [middle of 4 runs]; (compound 0.1 µM) 106% [middle of 4 runs]; (compound 0.316 µM) 104% (2×) and 114% and 126%; (compound 1 µM) 131% [middle of 4 runs]; (compound 10 µM) 27.6% [middle of 4 runs]. Further, under “curve of compound”, the IC50 was 7.12 µM and 7.36 µM and 7.32 µM.
In the case of `CCN1CCN(Cc2ccc(Nc3ncc(F)c(-c4cc(F)c5nc(C)n(C(C)C)c5c4)n3)nc2)CC1`, the viability, T/C is, setting by setting: (compound 0.00316 µM) 94% [middle of 4 runs]; (compound 0.01 µM) 88.4% [middle of 4 runs]; (compound 0.0316 µM) 74.3% [middle of 4 runs]; (compound 0.1 µM) 64.8% [middle of 4 runs]; (compound 0.316 µM) 68.5% [middle of 4 runs]. Moreover, the 50% inhibitory concentration (IC50) (curve of compound) was more than 1 µM.
As to `CNC(=O)c1ccc(N2C(=S)N(c3ccc(C#N)c(C(F)(F)F)c3)C(=O)C2(C)C)cc1F`, the viability, T/C runs as follows: (compound 0.0316 µM) 109% [middle of 4 runs]; (compound 0.1 µM) 95.3% [middle of 4 runs]; (compound 0.316 µM) 97% [middle of 4 runs]; (compound 1 µM) 93.3% [middle of 4 runs]; (compound 3.16 µM) 108% [middle of 4 runs]; (compound 10 µM) 95.8% [middle of 4 runs]. For the same compound, under “curve of compound”, the half-maximal inhibitory concentration (IC50) was more than 10 µM.
Regarding `COc1c(OCCCN2CCOCC2)ccc2c3n(c(=NC(=O)c4cnc(N)nc4)nc12)CCN3`, the viability, T/C was 82.3% [middle of 8 runs] (compound 0.00316 µM); 58.9% [middle of 8 runs] (compound 0.01 µM); 36.3% [middle of 8 runs] (compound 0.0316 µM); 22.1% [middle of 8 runs] (compound 0.1 µM); 4.98% [middle of 8 runs] (compound 0.316 µM); 1.19% [middle of 8 runs] (compound 1 µM). The half-maximal inhibitory concentration (IC50) under setting [2] was 15.9 nM [middle of 8 runs].
Take `Cc1nc(NC(=O)N2CCCC2C(N)=O)sc1-c1ccnc(C(C)(C)C(F)(F)F)c1` (configuration not stated): the viability, T/C (compound 0.0316 µM) was 91.9% [middle of 8 runs]; the viability, T/C (compound 0.1 µM) is 77% [middle of 8 runs]; the viability, T/C (compound 0.316 µM) is 57.5% [middle of 8 runs]; the viability, T/C (compound 1 µM) was 42.9% [middle of 8 runs]; the viability, T/C (compound 3.16 µM) was 30.8% [middle of 8 runs]; the viability, T/C (compound 10 µM) is 16.2% [middle of 8 runs]. For the same compound, the IC50 under setting [1] was 599 nM [middle of 8 runs].
Take `Cn1cnc2c(F)c(Nc3ccc(Br)cc3Cl)c(C(=O)NOCCO)cc21`: the viability, T/C is, setting by setting: (compound 0.00949 µM) 77.2% [middle of 4 runs]; (compound 0.03 µM) 70.8% [middle of 4 runs]; (compound 0.0949 µM) 58.2% [middle of 4 runs]; (compound 0.3 µM) 48.6% [middle of 4 runs]; (compound 0.949 µM) 48.3% [middle of 4 runs]; (compound 3 µM) 40.8% [middle of 4 runs].
With `Cn1ncnc1[C@H]1c2n[nH]c(=O)c3cc(F)cc(c23)N[C@@H]1c1ccc(F)cc1`, the viability, T/C runs as follows: (compound 0.000316 µM) 98.9% [middle of 4 runs]; (compound 0.001 µM) 99.5% [middle of 4 runs]; (compound 0.00316 µM) 96.6% [middle of 4 runs]; (compound 0.01 µM) 98.5% [middle of 4 runs]; (compound 0.0316 µM) 116% [middle of 4 runs]; (compound 0.1 µM) 102% [middle of 4 runs]. The IC50 (curve of compound) is more than 0.1 µM.
